From patent publication US12286618B2, “Lactic acid bacteria” (priority 2018, dated 2025)

Target: Streptococcus thermophilus glucokinase (GlcK) DGCC7710 variant E275K, strain DSM32587 (DGCC12534), SEQ ID NO: 22 (Streptococcus thermophilus, UniProt Q5M4Y5, E275K)
Conditions: substrate glucose (0, 5, 10, 15, 20 mM); 1 mM ATP; pH 7.2; 30° C.; crude extract; mean of three independent experiments
Description: A fresh overnight culture of the Streptococcus thermophilus strain to be assayed in M17 containing 30 g/L lactose is obtained and used to inoculate at 1% (vol/vol) 10 ml of fresh M17 30 g/L lactose. Cells are harvested by centrifugation (6000 g, 10 min, 4° C.) at a 600 nm optical density (OD600) of 0.8+/−0.2, washed in 5 ml cold GLCK buffer (5 mM MgCl2, 10 mM K2HPO4/KH2PO4 [pH 7.2]), and resuspended in 500 μl cold GLCK buffer. EDTA-free protease inhibitors “cOmplete™” (Roche, supplier reference 04693132001) is added in GLCK buffer as described by the provider. […] Total protein content is determined by using the FLUKA Protein Quantification Kit-Rapid (ref 51254). The glucokinase activity in the cell extracts is determined spectrophotometrically by a glucose-6-phosphate dehydrogenase (G-6PDH, EC1.1.1.49): NADPH-coupled assay (Porter et al., 1982), essentially as described by Pool et al. (2006). […] The optical density at 340 nm is measured for 5 minutes by using a Synergy HT multi-detection microplate reader (BIO-TEK). […]
A fresh overnight culture of a Streptococcus thermophilus strain in M17 containing 30 g/L lactose was obtained and used to inoculate at 1% (vol/vol) 10 ml of fresh M17 30 g/L lactose. […] Total protein content was determined by using the FLUKA Protein Quantification Kit-Rapid (ref 51254). […]

Chain of Streptococcus thermophilus glucokinase (GlcK) DGCC7710 variant E275K, strain DSM32587 (DGCC12534), SEQ ID NO: 22 (Q5M4Y5 entry or part of it E275K): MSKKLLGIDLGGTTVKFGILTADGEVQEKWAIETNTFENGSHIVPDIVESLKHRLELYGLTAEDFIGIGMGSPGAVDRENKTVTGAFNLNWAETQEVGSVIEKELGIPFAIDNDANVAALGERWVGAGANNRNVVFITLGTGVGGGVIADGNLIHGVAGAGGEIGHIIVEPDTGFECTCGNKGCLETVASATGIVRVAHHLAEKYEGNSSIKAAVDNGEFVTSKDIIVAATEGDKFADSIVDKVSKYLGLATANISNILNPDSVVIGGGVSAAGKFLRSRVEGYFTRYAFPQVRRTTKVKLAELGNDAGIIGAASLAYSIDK

## OC[C@H]1OC(O)[C@H](O)[C@@H](O)[C@@H]1O (stereo partly shown) [glucose]
  Vmax Glucokinase: 914 U/g total protein extract
